According to publication PMC7594047, “Synthesis of a New Class of Spirooxindole–Benzo[b]Thiophene-Based Molecules as Acetylcholinesterase Inhibitors” (Molecules, 2020):
Where two headings read alike, the source gives them in different places.

Assays:
[1] = system: AChE; conditions: cited from earlier work
[2] = target: T1, acetylcholinesterase enzyme from electric eel (Electrophorus electricus, UniProt O42275); test: Acetylcholinesterase (AChE) inhibitory assay (DTNB/acetylthiocholine iodide, absorbance at 412 nm); assay type: biochemical; conditions: for inhibition at 1.56 µg/mL: Conc 1.56 ug/ml; for inhibition at 3.125 µg/mL: Conc 3.125 ug/ml; for inhibition at 6.25 µg/mL: Conc 6.25 ug/ml; for inhibition at 12.5 µg/mL: Conc 12.5 ug/ml; for inhibition at 25 µg/mL: Conc 25 ug/ml; for inhibition at 50 µg/mL: Conc 50 ug/ml
T1 construct: purchased Sigma-Aldrich CAS Number 9000-81-1 (catalogue number not given)
T1 sequence (O42275 24-633): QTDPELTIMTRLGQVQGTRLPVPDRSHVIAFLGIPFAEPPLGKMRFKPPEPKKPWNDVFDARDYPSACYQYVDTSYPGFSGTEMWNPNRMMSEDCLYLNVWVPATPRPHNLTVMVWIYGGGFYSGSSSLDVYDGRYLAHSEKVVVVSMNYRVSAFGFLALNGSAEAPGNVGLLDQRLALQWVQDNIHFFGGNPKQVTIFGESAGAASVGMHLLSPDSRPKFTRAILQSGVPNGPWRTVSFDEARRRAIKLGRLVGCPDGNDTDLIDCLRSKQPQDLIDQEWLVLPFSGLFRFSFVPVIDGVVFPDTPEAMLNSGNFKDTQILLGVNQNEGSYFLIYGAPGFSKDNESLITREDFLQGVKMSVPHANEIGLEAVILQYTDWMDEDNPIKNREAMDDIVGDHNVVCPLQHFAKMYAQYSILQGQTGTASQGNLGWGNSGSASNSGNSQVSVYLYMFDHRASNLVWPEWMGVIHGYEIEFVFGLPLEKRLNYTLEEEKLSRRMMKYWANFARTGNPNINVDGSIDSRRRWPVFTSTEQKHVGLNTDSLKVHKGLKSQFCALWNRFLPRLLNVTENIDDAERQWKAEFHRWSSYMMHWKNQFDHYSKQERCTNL
Procedure: The in vitro cholinesterase inhibitory activity of the 14 synthesized spiro-oxindole derivatives (IIa–n) were evaluated. […] Galantamine was used as a positive control for comparison.
Acetylcholinesterase (AChE) inhibitory assay.
140 μL of 0.1 M sodium phosphate buffer of pH 8 was first added to a 96-wells microplate followed by 20 μL of test samples and 20 μL of 0.09 units/mL acetylcholinesterase enzyme from electric eel (Sigma-Aldrich, CAS Number 9000-81-1). After 15 min of incubation at 25 °C, 10 μL of 10 mM 5,5′-dithiobis-2-nitrobenzoic acid (DTNB, Sigma-Aldrich, CAS Number 69-78-3) was added into each well followed by 10 μL of 14 mM acetylthiocholine iodide (Sigma-Aldrich, CAS Number 1866-15-5). Thirty min after the initiation of enzymatic reaction, absorbance of the colored end-product was measured using StatFax-2100 microplate reader (Awareness Technology, Inc., USA) at 412 nm. Each test was conducted in triplicates. Test samples were prepared in DMSO at an initial concentration of 1 mg/mL (1000 ppm).
The concentration of DMSO in final reaction mixture was 1%.
The initial screening was carried out at 50 μg/mL of test samples in 1% DMSO. Absorbance of the test samples was corrected by subtracting the absorbance of their respective blank. Percentage enzyme inhibition is calculated using the following formula Percentage of inhibition = Absorbance of control - […]

[3] = read-out: IC50 value against AChE
[4] = supplement, six concentrations 1.56-50 μg/mL, read-out: IC50 (AchE inhibition) (converted)

| SMILES | IC50 ([1]; positive control (STD), Table 1, read-out: AChE Inhibition IC50) | inhibition at 1.56 µg/mL [2] | inhibition at 3.125 µg/mL [2] | inhibition at 6.25 µg/mL [2] | inhibition at 12.5 µg/mL [2] | inhibition at 25 µg/mL [2] | inhibition at 50 µg/mL [2] | IC50 [2, 3] | IC50 [2, 4] | IC50 ([2]; Table 1, read-out: AChE Inhibition IC50) | AChE inhibitory activity IC50 ([1]; compound A) | IC50 ([1]; compound A, read-out: AChE inhibitory activity IC50) | AChE inhibitory activity IC50 ([1]; compound B, Figure 1) |
| --- | --- | --- | --- | --- | --- | --- | --- | --- | --- | --- | --- | --- | --- |
| O=C(c1ccccc1)C1C(c2cc3ccccc3s2)C2CSCN2[C@@]12C(=O)Nc1ccc(Cl)cc12 (stereo partly drawn) [IIa, (3S)-7′-(Benzo[b]thiophen-2-yl)-6′-benzoyl-5-chloro-3′,6′,7′,7a’-tetrahydro-1′H-spiro[indoline-3,5′-pyrrolo[1,2-c]thiazol]-2-one] | – | 1.68% | 6.58% | 14.4% | 27.7% | 39% | 50.4% | > 70 µM | 85.6 µM | – | – | – | – |
| O=C(c1ccccc1)C1C(c2cc3ccccc3s2)C2CSCN2[C@@]12C(=O)Nc1ccccc12 (stereo partly drawn) [IIb, (3S)-7′-(Benzo[b]thiophen-2-yl)-6′-benzoyl-3′,6′,7′,7a’-tetrahydro-1′H-spiro[indoline-3,5′-pyrrolo[1,2-c]thiazol]-2-one] | – | 2.76% | 8.12% | 16.2% | 25.6% | 40.9% | 51.5% | > 70 µM | 88.4 µM | – | – | – | – |
| O=C(c1ccccc1)C1C(c2cc3ccccc3s2)C2C3CCCCC3CN2[C@@]12C(=O)Nc1ccc(Cl)cc12 (stereo partly drawn) [IIc, (3S)-1′-(Benzo[b]thiophen-2-yl)-2′-benzoyl-5-chloro-1′,2′,5′,5a’,6′,7′,8′,9′,9a’,9b’-decahydrospiro[indoline-3,3′-pyrrolo[2,1-a]isoindol]-2-one] | – | 13.9% | 29.9% | 43.5% | 54.5% | 61.6% | 70.3% | – | 20.8 µM | – | – | – | – |
| O=C(c1ccc(Cl)cc1)C1C(c2cc3ccccc3s2)C2CSCN2[C@@]12C(=O)Nc1ccc(Cl)cc12 (stereo partly drawn) [IId, (3S)-7′-(Benzo[b]thiophen-2-yl)-5-chloro-6′-(4-chlorobenzoyl)-3′,6′,7′,7a’-tetrahydro-1′H-spiro[indoline-3,5′-pyrrolo[1,2-c]thiazol]-2-one] | – | 19.8% | 24.8% | 29.7% | 41.5% | 53.3% | 64% | 37.7 µM | 37.7 µM | – | – | – | – |
| O=C(c1ccc(Cl)cc1)C1C(c2cc3ccccc3s2)C2CSCN2[C@@]12C(=O)Nc1ccccc12 (stereo partly drawn) [IIe, (3S)-7′-(Benzo[b]thiophen-2-yl)-6′-(4-chlorobenzoyl)-3′,6′,7′,7a’-tetrahydro-1′H-spiro[indoline-3,5′-pyrrolo[1,2-c]thiazol]-2-one] | – | 18.2% | 23.3% | 27.7% | 40.3% | 50.5% | 58.6% | 50.6 µM | 50.6 µM | – | – | – | – |
| O=C(c1ccc(Cl)cc1)C1C(c2cc3ccccc3s2)C2C3CCCCC3CN2[C@@]12C(=O)Nc1ccc(Cl)cc12 (stereo partly drawn) [IIf, (3S)-1′-(Benzo[b]thiophen-2-yl)-5-chloro-2′-(4-chlorobenzoyl)-1′,2′,5′,5a’,6′,7′,8′,9′,9a’,9b’-decahydrospiro[indoline-3,3′-pyrrolo[2,1-a]isoindol]-2-one] | – | 16.1% | 24.4% | 34.9% | 43% | 53% | 63.1% | 34 µM | 34 µM | – | – | – | – |
| O=C(c1ccc(F)cc1)C1C(c2cc3ccccc3s2)C2CSCN2[C@@]12C(=O)Nc1ccc(Cl)cc12 (stereo partly drawn) [IIg, (3S)-7′-(Benzo[b]thiophen-2-yl)-5-chloro-6′-(4-fluorobenzoyl)-3′,6′,7′,7a’-tetrahydro-1′H-spiro[indoline-3,5′-pyrrolo[1,2-c]thiazol]-2-one] | – | 23.4% | 30.3% | 41.5% | 51.8% | 59% | 68.3% | 23 µM | 23 µM | – | – | – | – |
| O=C(c1ccc(F)cc1)C1C(c2cc3ccccc3s2)C2C3CCCCC3CN2[C@@]12C(=O)Nc1ccc(Cl)cc12 (stereo partly drawn) [IIh, (3S)-1′-(Benzo[b]thiophen-2-yl)-5-chloro-2′-(4-fluorobenzoyl)-1′,2′,5′,5a’,6′,7′,8′,9′,9a’,9b’-decahydrospiro[indoline-3,3′-pyrrolo[2,1-a]isoindol]-2-one] | – | 0.46% | 6.58% | 10.7% | 23.3% | 27.4% | 43% | – | 122 µM | 122 µM | – | – | – |
| O=C(c1ccc(C(F)(F)F)cc1)C1C(c2cc3ccccc3s2)C2CSCN2[C@@]12C(=O)Nc1ccc(Cl)cc12 (stereo partly drawn) [IIi, (3S)-7′-(Benzo[b]thiophen-2-yl)-5-chloro-6′-(4-(trifluoromethyl)benzoyl)-3′,6′,7′,7a’-tetrahydro-1′H-spiro[indoline-3,5′-pyrrolo[1,2-c]thiazol]-2-one] | – | 1.23% | 7.35% | 12.7% | 26.2% | 38.7% | 52.4% | – | 72.4 µM | – | – | – | – |
| O=C(c1ccc(C(F)(F)F)cc1)C1C(c2cc3ccccc3s2)C2CSCN2[C@@]12C(=O)Nc1ccccc12 (stereo partly drawn) [IIj, (3S)-7′-(Benzo[b]thiophen-2-yl)-6′-(4-(trifluoromethyl)benzoyl)-3′,6′,7′,7a’-tetrahydro-1′H-spiro[indoline-3,5′-pyrrolo[1,2-c]thiazol]-2-one] | – | 1.68% | 6.43% | 12.2% | 29.4% | 41% | 50.7% | – | 76 µM | – | – | – | – |
| O=C(c1ccc(C(F)(F)F)cc1)C1C(c2cc3ccccc3s2)C2C3CCCCC3CN2[C@@]12C(=O)Nc1ccc(Cl)cc12 (stereo partly drawn) [IIk, (3S)-1′-(Benzo[b]thiophen-2-yl)-5-chloro-2′-(4-(trifluoromethyl)benzoyl)-1′,2′,5′,5a’,6′,7′,8′,9′,9a’,9b’-decahydrospiro[indoline-3,3′-pyrrolo[2,1-a]isoindol]-2-one] | – | 9.95% | 24.8% | 32.8% | 41.8% | 49.2% | 57.3% | 41.5 µM | 41.5 µM | – | – | – | – |
| O=C(c1ccc(Br)cc1)C1C(c2cc3ccccc3s2)C2CSCN2[C@@]12C(=O)Nc1ccc(Cl)cc12 (stereo partly drawn) [IIl, (3S)-7′-(Benzo[b]thiophen-2-yl)-6′-(4-bromobenzoyl)-5-chloro-3′,6′,7′,7a’-tetrahydro-1′H-spiro[indoline-3,5′-pyrrolo[1,2-c]thiazol]-2-one] | – | 11.6% | 25.6% | 34.9% | 44.4% | 56.5% | 64.9% | 29.8 µM | 29.8 µM | – | – | – | – |
| O=C(c1ccc(Br)cc1)C1C(c2cc3ccccc3s2)C2CSCN2[C@@]12C(=O)Nc1ccccc12 (stereo partly drawn) [IIm, (3S)-7′-(Benzo[b]thiophen-2-yl)-6′-(4-bromobenzoyl)-3′,6′,7′,7a’-tetrahydro-1′H-spiro[indoline-3,5′-pyrrolo[1,2-c]thiazol]-2-one] | – | – | – | – | – | – | – | 41.4 µM | – | – | – | – | – |
| O=C(c1ccc(Br)cc1)C1C(c2cc3ccccc3s2)C2C3CCCCC3CN2[C@@]12C(=O)Nc1ccc(Cl)cc12 (stereo partly drawn) [IIn, (3S)-1′-(Benzo[b]thiophen-2-yl)-2′-(4-bromobenzoyl)-5-chloro-1′,2′,5′,5a’,6′,7′,8′,9′,9a’,9b’-decahydrospiro[indoline-3,3′-pyrrolo[2,1-a]isoindol]-2-one] | – | 15.6% | 23.4% | 32.5% | 41.8% | 50.1% | 61% | 36.8 µM | 36.8 µM | – | – | – | – |
| O=C1/C(=C/c2ccc(Cl)cc2Cl)CN(C(=O)C2CC3CCCN3C23C(=O)Nc2cc(Cl)ccc23)C/C1=C\c1ccc(Cl)cc1Cl (stereo not shown) [compound A] | – | – | – | – | – | – | – | – | – | – | 2.37 ± 0.11 µg/mL | 3.33 µM | – |
| O=C1/C(=C/c2ccc(Cl)cc2)CN(C(=O)C2CC3CCCN3C23C(=O)Nc2ccccc23)C/C1=C\c1ccc(Cl)cc1 (stereo not shown) [compound B] | – | – | – | – | – | – | – | – | – | – | – | – | 2.28 ± 0.07 µg/mL |
